Biological target: T1, recombinant human NK3 receptor (Homo sapiens, UniProt P29371)
T1 construct: expressed in transfected cells; host or cells: HEK293 cells (transient expression), membranes
T1 sequence (P29371 1-465): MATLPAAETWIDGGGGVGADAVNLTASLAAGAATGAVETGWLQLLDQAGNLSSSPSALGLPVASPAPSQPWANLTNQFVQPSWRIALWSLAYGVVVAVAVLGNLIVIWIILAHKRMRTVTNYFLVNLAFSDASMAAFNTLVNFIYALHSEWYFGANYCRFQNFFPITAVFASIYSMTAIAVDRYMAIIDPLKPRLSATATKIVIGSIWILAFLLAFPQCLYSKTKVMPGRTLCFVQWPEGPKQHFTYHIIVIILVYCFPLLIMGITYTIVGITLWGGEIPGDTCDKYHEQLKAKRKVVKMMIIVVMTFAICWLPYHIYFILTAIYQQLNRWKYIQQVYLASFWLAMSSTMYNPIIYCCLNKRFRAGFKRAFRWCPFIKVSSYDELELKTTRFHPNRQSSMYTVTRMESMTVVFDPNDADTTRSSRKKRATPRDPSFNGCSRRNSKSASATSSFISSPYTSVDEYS
Test: [3H]SR142801 competition binding assay
Conditions: membranes from HEK293 cells transiently expressing recombinant human NK3 receptor; [3H]SR142801 radioligand; 75 min at RT; Ki by Cheng-Prussoff; read-out: Data Ki (hNK-3 receptor affinity)
Description: [^3H]SR142801 Competition Binding Assay
hNK3 receptor binding experiment were performed using [^3H]SR142801 (Catalog No. TRK1035, specific activity: 74.0 Ci/mmol, Amersham, GE Healthcare UK limited, Buckinghamshire, UK) and membrane isolated from HEK293 cells transiently expressing recombinant human NK3 receptor. After thawing, the membrane homogenates were centrifuged at 48,000×g for 10 min at 4° C., the pellets were resuspended in the 50 mM Tris-HCl, 4 mM MnCl2, 1 μM phosphoramidon, 0.1% BSA binding buffer at pH 7.4 to a final assay concentration of 5 μg protein/well. […] At the end of the incubation, membranes were filtered onto unitfilter (96-well white microplate with bonded GF/C filter preincubated 1 h in 0.3% PEI+0.3% BSA, Packard BioScience, Meriden, Conn.) with a Filtermate 196 harvester (Packard BioScience) and washed 4 times with ice-cold 50 mM Tris-HCl, pH 7.4 buffer. Nonspecific binding was measured in the presence of 10 μM SB222200 for both radioligands. The radioactivity on the filter was counted (5 min) on a Packard Top-count microplate scintillation counter with quenching correction after addition of 45 μl of microscint 40 (Can berra Packard S. A., Zurich, Switzerland) and shaking for 1 h. Inhibition curves were fitted according to the Hill equation: y=100/(1+(x/IC50)^nH), where nH=slope factor using Excel-fit 4 software (Microsoft). IC50 values were derived from the inhibition curve and the affinity constant (Ki) values were calculated using the Cheng-Prussoff equation Ki═IC50/(1+[L]/KD) where [L] is the concentration of radioligand and KD is its dissociation constant at the receptor, derived from the saturation isotherm. All experiments were performed in duplicate and the mean±standard error (SEM) of the individual Ki values was calculated.

Row | Ki | Structure (SMILES)
1 | 78.5 nM | C[C@H](NC(=O)C1(c2ccccc2)CCN(C(=O)c2ccc(-c3cncnc3)cc2)CC1)c1ccccc1 [Example 44, 4-Phenyl-1-(4-pyrimidin-5-yl-benzoyl)-piperidine-4-carboxylic acid ((S)-1-phenyl-ethyl)-amide]
2 | 26.7 nM | C[C@H](NC(=O)C1(c2ccccc2)CCN(C(=O)c2ccc(-c3ccc(C(F)(F)F)cn3)cc2)CC1)c1ccccc1 [Example 45, 4-Phenyl-1-[4-(5-trifluorome-thyl-pyridin-2-yl)benzoyl]-piperidine-4-carboxylic acid ((S)-1-phenyl-ethyl)-amide]
3 | 24.7 nM | C[C@H](NC(=O)C1(c2ccccc2)CCN(C(=O)c2ccc(-c3ncccn3)cc2)CC1)c1ccccc1 [Example 47, 4-Phenyl-1-(4-pyrimidin-2-yl-benzoyl)-piperidine-4-carboxylic acid ((S)-1-phenyl-ethyl)-amide]
4 | 24.1 nM | C[C@H](NC(=O)C1(c2ccccc2)CCN(C(=O)c2cnc(-c3ccccc3)nc2)CC1)c1ccccc1 [Example 52, 4-Phenyl-1-(2-phenyl-pyrimidine-5-carbonyl)-piperidine-4-carboxylic acid ((S)-1-phenyl-ethyl)-amide]
5 | 23.2 nM | C[C@H](NC(=O)C1(c2ccccc2)CCN(C(=O)c2ccc(-c3cccnc3)cc2)CC1)c1ccccc1 [Example 53, 4-Phenyl-1-(4-pyridin-3-yl-benzoyl)-piperidine-4-carboxylic acid ((S)-1-phenyl-ethyl)-amide]
6 | 7.2 nM | C[C@H](NC(=O)C1(c2ccccc2)CCN(C(=O)c2ccc(-c3ccc(F)cc3)cc2)CC1)c1ccccc1 [Example 54, 1-(4′-Fluoro-biphenyl-4-carbonyl)-4-phenyl-piperidine-4-carboxylic acid ((S)-1-phenyl-ethyl)-amide]
7 | 14.8 nM | C[C@H](NC(=O)C1(c2ccccc2)CCN(C(=O)c2ccc(-c3ccc(C#N)cc3)cc2)CC1)c1ccccc1 [Example 55, 1-(4′-Cyano-biphenyl-4-carbonyl)-4-piperidine-phenyl-4-carboxylic acid ((S)-1-phenyl-ethyl)-amide]
8 | 20.6 nM | C[C@H](NC(=O)C1(c2ccccc2)CCN(C(=O)c2ccc(-c3ccccc3)nc2)CC1)c1ccccc1 [Example 56]
9 | 37 nM | CC(=O)c1ccc(-c2ccc(C(=O)N3CCC(C(=O)N[C@@H](C)c4ccccc4)(c4ccccc4)CC3)cc2)cc1 [Example 59, 1-(4′-Acetyl-biphenyl-4-carbonyl)-4-phenyl-piperidine-4-carboxylic acid ((S)-1-phenyl-ethyl)-amide]
10 | 31.5 nM | CC(=O)c1cccc(-c2ccc(C(=O)N3CCC(C(=O)N[C@@H](C)c4ccccc4)(c4ccccc4)CC3)cc2)c1 [Example 60, 1-(3′-Acetyl-biphenyl-4-carbonyl)-4-phenyl-piperidine-4-carboxylic acid ((S)-1-phenyl-ethyl)-amide]
11 | 37.9 nM | C[C@H](NC(=O)C1(c2ccccc2)CCN(C(=O)C2CCN(c3ccc(C#N)cn3)CC2)CC1)c1ccccc1 [Example 61, 1-(5′-Cyano-3,4,5,6-tetrahydro-2H-[1,2′]bipyrid-inyl-4-carbonyl)-4-phenyl-piperidine-4-carboxylic acid ((S)-1-phenyl-ethyl)-amide]
12 | 63.5 nM | C[C@H](NC(=O)C1(c2ccccc2)CCN(C(=O)c2cc(-c3ccc(F)cc3)no2)CC1)c1ccccc1 [Example 62, 1-[3-(4-Fluoro-phenyl)-isoxazole-5-carbonyl]-4-phenyl-piperidine-4-carboxylic acid ((S)-1-phenyl-ethyl)-amide]
13 | 44.9 nM | C[C@H](NC(=O)C1(c2ccccc2)CCN(C(=O)c2ccc(N3CCCCC3=O)cc2)CC1)c1ccccc1 [Example 63]
14 | 72.7 nM | C[C@H](NC(=O)C1(c2ccccc2)CCN(C(=O)c2ccc(-c3ccc(N)cc3)cc2)CC1)c1ccccc1 [Example 64, 1-(4′-Amino-biphenyl-4-carbonyl)-4-phenyl-piperidine-4-carboxylic acid ((S)-1-phenyl-ethyl)-amide]
15 | 59 nM | CC(C)c1nc(-c2ccc(C(=O)N3CCC(C(=O)N[C@@H](C)c4ccccc4)(c4ccccc4)CC3)cc2)no1 [Example 66, 1-[4-(5-Isopropyl-[1,2,4]oxa-diazol-3-yl)-benzoyl]-4-phenyl-piperidine-4-carboxylic acid ((S)-1-phenyl-ethyl)-amide]
16 | 20.9 nM | Cc1nc(-c2ccc(C(=O)N3CCC(C(=O)N[C@@H](C)c4ccccc4)(c4ccccc4)CC3)cc2)cs1 [Example 68]
17 | 77.3 nM | C[C@H](NC(=O)C1(c2ccccc2)CCN(C(=O)c2ccc(-c3ccn(C)n3)cc2)CC1)c1ccccc1 [Example 69, l-[4-(1-Methyl-1 H-pyrazol-3-yl)-benzoyl]-4-phenyl-piperidine-4-carboxylic acid ((S)-1-phenyl-ethyl)-amide]
18 | 28.4 nM | CCc1nc(-c2ccc(C(=O)N3CCC(C(=O)N[C@@H](C)c4ccccc4)(c4ccccc4)CC3)cc2)no1 [Example 71, 1-[4-(5-Ethyl-[1,2,4]oxa-diazol-3-yl)-benzoyl]-4-phenyl-piperidine-4-carboxylic acid ((S)-1-phenyl-ethyl)-amide]
19 | 15.8 nM | C[C@H](NC(=O)C1(c2ccccc2)CCN(C(=O)c2ccc(-c3nnn(C)n3)cc2)CC1)c1ccccc1 [Example 72, 1-[4-(2-Methyl-2H-tetrazol-5-yl)-benzoyl]-4-phenyl-piperidine-4-carboxylic acid ((S)-1-phenyl-ethyl)-amide]
20 | 1 nM | Cc1noc(-c2ccc(C(=O)N3CCC(C(=O)N[C@@H](C)C4CCCCC4)(c4ccccc4)CC3)cc2)n1 [Example 74]
21 | 3.9 nM | Cc1nc(-c2ccc(C(=O)N3CCC(C(=O)N[C@@H](C)C4CCCCC4)(c4ccccc4)CC3)cc2)no1 [Example 75, 1-[4-(5-Methyl-[1,2,4]oxa-diazol-3-yl)-benzoyl]-4-phenyl-piperidine-4-carboxylic acid ((S)-1-cyclohexyl-ethyl)-amide]
22 | 2.9 nM | Cc1noc(-c2ccc(C(=O)N3CCC(C(=O)N[C@@H](C)c4ccc(F)cc4)(c4ccccc4)CC3)cc2)n1 [Example 76, 1-[4-(3-Methyl-[1,2,4]oxa-diazol-5-yl)-benzoyl]-4-phenyl-piperidine-4-carboxylic acid [(S)-1-(4-fluoro-phenyl)-ethyl]-amide]
23 | 12.2 nM | Cc1nc(-c2ccc(C(=O)N3CCC(C(=O)N[C@@H](C)c4ccc(F)cc4)(c4ccccc4)CC3)cc2)no1 [Example 77, 1-[4-(5-Methyl-[1,2,4]oxa-diazol-3-yl)-benzoyl]-4-phenyl-piperidine-4-carboxylic acid [(S)-1-(4-fluoro-phenyl)-ethyl]-amide]
24 | 11.8 nM | C[C@H](NC(=O)C1(c2ccccc2)CCN(C(=O)c2ccc(N3CCS(=O)(=O)CC3)cc2)CC1)c1ccc(F)cc1 [Example 78, 1-[4-(1,1-Dioxo-1λ6-thiomor-pholin-4-yl)-benzoyl]-4-phenyl-piperidine-4-carboxylic acid [(S)-1-(4-fluoro-phenyl)-ethyl]-amide]
25 | 9.5 nM | C[C@H](NC(=O)C1(c2ccccc2)CCN(C(=O)c2ccc(-c3ccc(F)cc3)cc2)CC1)c1ccc(F)cc1 [Example 79, 1-(4′-Fluoro-biphenyl-4-carbonyl)-4-phenyl-piperidine-4-carboxylic acid [(S)-1-(4-fluoro-phenyl)-ethyl]-amide]
26 | 4.1 nM | C[C@H](NC(=O)C1(c2ccccc2)CCN(C(=O)c2ccc(N3CCS(=O)(=O)CC3)cc2)CC1)C1CCCCC1 [Example 80, 1-[4-(1,1 - Dioxo-1λ6-thiomorpholin-4-yl)-benzoyl]-4-phenyl-piperidine-4-carboxylic acid ((S)-1-cyclohexyl-ethyl)-amide]
27 | 6 nM | Cc1noc(-c2ccc(C(=O)N3CCC(C(=O)N[C@@H](C)c4ccccc4)(c4ccc(F)cc4)CC3)cc2)n1 [Example 81, 4-(4-Fluoro-phenyl)-1-[4-(3-methyl-[1,2,4]oxa-diazol-5-yl)-benzoyl]-piperidine-4-carboxylic acid ((S)-1-phenyl-ethyl)-amide]
28 | 5.3 nM | Cc1noc(-c2ccc(C(=O)N3CCC(C(=O)N[C@@H](C)c4ccc(F)cc4)(c4ccccc4)CC3)cn2)n1 [Example 82, 1-[6-(3-Methyl-[1,2,4]oxa-diazol-5-yl)-pyridine-3-carbonyl]-4-phenyl-piperidine-4-carboxylic acid [(S)-1-(4-fluoro-phenyl)-ethyl]-amide]

Source: patent publication US8324250B2 (Hoffmann-La Roche Inc., priority 2009, dated 2012)
